The test system of assay [1] is A549 cells. The assay is described as follows: MTT cell viability assay. Format: cell-based, human. The following applies: A549, 24 h treatment. The method, then: (§1) The cell viability was assessed using an MTT assay, determining the half-maximal inhibitory concentration (IC50) to screen right-half RT analogs (DH_18, DH_21, DH_32, DH_35, DH_38, and DH_39). Human NSCLC cells (A549, H23, and H292) were seeded in a 96-well cell culture plate at a density of 1 × 10^4 cells per well and incubated for 24 h at 37 °C. Subsequently, the culture medium was aspirated, and a complete medium with varying concentrations (0–100 μM) of right-half RT analogs was added for 24 h. Following the removal of the compound-containing medium, an MTT reagent at a concentration of 4 mg/mL was applied and incubated for 3 h at 37 °C. The MTT reagent was replaced with 100 μL of DMSO to dissolve the formazan crystals. The measurement of the formazan product was conducted at 570 nm utilizing a microplate reader. RT served as the positive control in this experiment.
Background: Tetrazolium dyes change colour on reduction, which living cells bring about.

Assay [2] has as its system H23 cells. The assay is described as follows: MTT cell viability assay. It is filed as cell-based, human. The method, then: as §1
Assay [3] concerns H292 cells. The assay is described as follows: MTT cell viability assay. Format: cell-based, human. How it is done: as §1
For assay [4], the system named is human dermal papilla cells (DP). The assay is described as follows: MTT cell viability assay, normal cells. It is filed as cell-based. The following applies: for IC50: DP normal cells, 24 h treatment, MTT.
A further assay relates to BEAS2B cells. The assay is described as follows: MTT cell viability assay, normal cells. The following applies: for IC50: BEAS2B normal cells, 24 h treatment, MTT. It is filed as cell-based, human.
In assay [5] the test system is A549 cells. The assay is described as follows: Nuclear staining assay (Hoechst 33342/PI). Format: cell-based, human. The following applies: A549, 0.5 μM, 24 h; for percentage of apoptosis: Hoechst 33342; for percentage of dead cells: PI staining. How it is done: (§2) The assessment of apoptosis and dead cell counts was performed through costaining with Hoechst 33342 and propidium iodide (PI). Human NSCLCs (1 × 10^4 cells per well) were seeded in a 96-well plate, incubated at 37 °C, and exposed to all right-half RT analogs at a concentration of 0.5 μM. After treatment, the cells were rinsed with PBS and subjected to co-staining with Hoechst 33342 (10 μg/mL) and propidium iodide (PI) (0.02 μg/mL) for 30 min at 37 °C. Fluorescence microscopy (Olympus 1X51 with a DP70 digital camera, Tokyo, Japan) was utilized to observe the fragmented nuclei indicative of apoptotic cells stained with Hoechst 33342 and the positive PI staining for dead cells. Subsequently, the percentages of apoptosis and dead cells were calculated. In this experiment, RT at a concentration of 0.5 μM served as the positive control.

Assay [6] has as its system H23 cells. The assay is described as follows: Nuclear staining assay (Hoechst 33342/PI). Format: cell-based, human. The following applies: H23, 0.5 μM, 24 h; for percentage of apoptosis: Hoechst 33342; for percentage of dead cells: PI staining. The method, then: as §2
Assay [7] relates to H292 cells. The assay is described as follows: Nuclear staining assay (Hoechst 33342/PI). Format: cell-based, human. The note with it: H292, 0.5 μM, 24 h; for percentage of apoptosis: Hoechst 33342; for percentage of dead cells: PI staining. The method, then:
as §2

In assay [8] the test system is A549 cells. The assay is described as follows: Colony formation assay. Format: cell-based, human. The note with it: A549, 25 nM, 24 h treatment then 7 days growth. The method, then: (§3) A clonogenic or colony formation assay was utilized to explore the capability of cancer cells to proliferate from single cells and form tumor colonies in response to DH_32 treatment. A single-cell suspension of NSCLC cells (A549, H23, and H292) was seeded at a density of 250 cells per well in a 6-well plate and permitted to adhere for 12 h. The cells were treated to different concentrations of DH_32 (0, 25, 50, and 100 nM) for a duration of 24 h. Subsequently, the medium containing the drug was aspirated, and fresh complete medium was introduced. The colonies were cultured for a period of 7 days, with the medium being renewed every 2 days. The colonies were washed with PBS, followed by fixation using a solution of methanol and acetic acid (3:1 v/v) for 5 min. Subsequently, they were stained with crystal violet (0.05% w/v in 4% paraformaldehyde) for 30 min. The excess crystal violet stain was washed away with distilled water until a clear background was obtained, and the samples were left to air-dry at room temperature. The colonies were photographed, and the captured images were analyzed using ImageJ software to determine the count of stained colonies. In this experiment, RT served as the positive control.

In assay [9] the test system is H23 cells. The assay is described as follows: Colony formation assay. It is filed as cell-based, human. The following applies: H23, 25 nM, 24 h treatment then 7 days growth. How it is done: as §3
Assay [10] has as its system H292 cells. The assay is described as follows: Colony formation assay. Format: cell-based, human. The note with it: H292, 25 nM, 24 h treatment then 7 days growth. How it is done: as §3

In general, IC50 refers to the midpoint of a concentration-inhibition curve. Higher therefore signals a need for much substance. The term inhibition denotes the drop in the measured response relative to a control, in per cent. Turning to `COC1=C(C)C(=O)C2=C(C1=O)[C@@H]1CN(Cc3ccc4ccccc4c3)[C@@H](C#N)[C@H](C2)N1C` [DH_32, (1R,4R,5S)-9-methoxy-8,11-dimethyl-3-(naphthalen-2-ylmethyl)-7,10-dioxo-1,2,3,4,5,6,7,10-octahydro-1,5-epiminobenzo[d]azocine-4-carbonitrile], the half-inhibitory concentration (IC50) was 4.06 ± 0.24 µM in the assay with A549 cells [1] (Homo sapiens); 2070 ± 110 nM with H23 cells [2] (Homo sapiens, NCI-H23, H23, 24 h treatment); 1460 ± 60 nM in the assay on H292 cells [3] (Homo sapiens, NCI-H292, H292, 24 h treatment); 34.2 ± 1.22 µM in assay [4] (Homo sapiens, Human dermal papilla cell); 5.06 ± 0.22 µM with BEAS2B cells (Homo sapiens, BEAS-2B). Besides, the “selectivity index (SI)” value in assay [4] (DP cells versus A549) was determined as 8.42; in assay [4] (DP cells versus H23), 16.51; in [4] (DP cells versus H292), 23.40; with BEAS2B cells (BEAS2B cells versus A549), 1.25; in the assay with BEAS2B cells (BEAS2B cells versus H23), 2.44; in the assay on BEAS2B cells (BEAS2B cells versus H292), 3.47. Also, the percentage of apoptosis in the assay with A549 cells [5] was found to be 29.33 ± 0.51%; in the assay with H23 cells [6], 39.29 ± 1.88%; with H292 cells [7], 34.13 ± 0.97%. In addition, the “percentage of dead cells” value with A549 cells [5] amounted to 23.38 ± 0.96%; in the assay on H23 cells [6], 35.07 ± 1.67%; in the assay on H292 cells [7], 29.82 ± 1.26%. In addition, the inhibition at 0.025 µM stood at 90.83 ± 0.1% in the assay on A549 cells [8] (Homo sapiens, read-out: colony formation inhibition rate); 78.49 ± 0.08% in the assay with H23 cells [9] (Homo sapiens, NCI-H23, read-out: colony formation inhibition rate); 79.74 ± 0.14% in the assay with H292 cells [10] (Homo sapiens, NCI-H292, read-out: colony formation inhibition rate).

As for `CC=C(C)C(=O)OCC1c2c(c(O)c(C)c3c2OCO3)CC2C3C4=C(CC(C(C#N)N12)N3C)C(=O)C(C)=C(OC)C4=O` (stereo not shown) [RT, Renieramycin T], the IC50 turned out to be 5.76 ± 0.23 µM with A549 cells [1]; 2930 ± 70 nM in the assay with H23 cells [2] (H23, 24 h treatment); 1520 ± 50 nM in the assay on H292 cells [3] (H292, 24 h treatment); 13.7 ± 0.33 µM in assay [4]; 1.18 ± 0.02 µM in the assay with BEAS2B cells. For the same molecule, the values for the percentage of apoptosis with A549 cells [5], in the assay on H23 cells [6] and with H292 cells [7] were 24.95 ± 1.32%, 33.41 ± 0.53% and 29.63 ± 0.47%, respectively. Besides, the entries for the “percentage of dead cells” value in the assay on A549 cells [5], in the assay on H23 cells [6] and in the assay on H292 cells [7] were 21.60 ± 0.99%, 31.15 ± 0.48% and 26.31 ± 1.04%, respectively. For the same molecule, the “colony formation inhibition rate” value came out at 72.58 ± 0.07% with A549 cells [8], 58.75 ± 0.01% in the assay on H23 cells [9] and 32.22 ± 0.05% with H292 cells [10].
